Numbering of substitutions follows the chain as printed. Where “and” joins values, the source holds several entries; their conditions need not be identical. Equal values may be shown once.
How the values were obtained:
[1] = target: T1, Y142A mutant mouse 5-HT3ASR (Mus musculus, UniProt P23979, Y143A); assay: [^3H]granisetron saturation binding, Y142A receptor; settings: ± SE
T1 sequence (P23979 24-483 isoform P23979-2 Y143A): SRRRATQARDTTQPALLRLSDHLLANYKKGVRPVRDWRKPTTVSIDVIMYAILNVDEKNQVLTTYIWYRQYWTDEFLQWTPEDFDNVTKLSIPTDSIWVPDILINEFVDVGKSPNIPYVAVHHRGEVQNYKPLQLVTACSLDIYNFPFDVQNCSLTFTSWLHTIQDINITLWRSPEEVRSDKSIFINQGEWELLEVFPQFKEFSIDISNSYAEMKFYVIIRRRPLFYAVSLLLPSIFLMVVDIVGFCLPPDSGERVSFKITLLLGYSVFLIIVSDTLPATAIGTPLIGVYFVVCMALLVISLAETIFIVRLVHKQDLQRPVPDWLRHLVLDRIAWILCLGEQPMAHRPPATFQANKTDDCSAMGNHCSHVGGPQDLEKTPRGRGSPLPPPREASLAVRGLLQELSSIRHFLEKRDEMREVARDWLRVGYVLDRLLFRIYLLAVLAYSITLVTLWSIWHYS

[2] = target: T2, V149A mutant mouse 5-HT3ASR (Mus musculus, UniProt P23979, V150A); assay: [^3H]granisetron saturation binding, V149A receptor
T2 sequence (P23979 24-483 isoform P23979-2 V150A): T1 sequence (P23979 24-483 isoform P23979-2 Y143A) with A120Y, V127A

[3] = system: Q150A – K153A mutant mouse 5-HT3ASRs; assay: [^3H]granisetron saturation binding, Q150A – K153A receptors
[4] = target: T3, V143A mutant mouse 5-HT3ASR (Mus musculus, UniProt P23979, V144A); assay: [^3H]granisetron saturation binding, V143A receptor; settings: ± SE
T3 sequence (P23979 24-483 isoform P23979-2 V144A): T1 sequence (P23979 24-483 isoform P23979-2 Y143A) with A120Y, V121A

[5] = target: T4, N151A mutant mouse 5-HT3ASR (Mus musculus, UniProt P23979, N152A); assay: [^3H]granisetron saturation binding, N151A receptor; settings: ± SE
T4 sequence (P23979 24-483 isoform P23979-2 N152A): T1 sequence (P23979 24-483 isoform P23979-2 Y143A) with A120Y, N129A

[6] = target: T5, K153A mutant mouse 5-HT3ASR (Mus musculus, UniProt P23979, K154A); assay: [^3H]granisetron saturation binding, K153A receptor; settings: ± SE
T5 sequence (P23979 24-483 isoform P23979-2 K154A): T1 sequence (P23979 24-483 isoform P23979-2 Y143A) with A120Y, K131A

Bmax [1]: 0.97 ± .14 pmol/mg protein | Hill coefficient (n) [1]: 1.6 ± 0.27 | binding of [^3H]granisetron [2]: No detectable binding | decrease in binding affinity (increased Kd), mutant vs wildtype [3]: 6 – 8 fold | Bmax [4]: 1.1 ± .04 pmol/mg protein | Hill coefficient (n) [4]: 0.97 ± 0.13 | Bmax [5]: 4.9 ± 1.1 pmol/mg protein | Hill coefficient (n) [5]: 1.66 ± 0.16 | Hill coefficient (n) [6]: 1.51 ± 0.17
SMILES: CN1C2CCCC1CC(NC(=O)c1nn(C)c3ccccc13)C2 (stereo not shown) [[^3H]granisetron]
Bmax [6]: 0.30 pmol/mg protein and 0.30 ± .08 pmol/mg protein
